Test results: patent US20250270191A1, “QUINOLONE BCL6 BIFUNCTIONAL DEGRADERS” (Treeline Biosciences, Inc., priority 2022, published 2025)

molecular target: T1, Human BCL6 protein (N-terminal HiBiT tagged BCL6 in HT1080 cells) (Homo sapiens, UniProt P41182+Q96SW2); test: HiBiT based BCL6 degradation assay; assay type: cell-based; conditions: HT1080 cells expressing N-terminal HiBiT tagged BCL6; 5 hours incubation; BCL6 degradation normalized with DMSO control
T1 construct: Human BCL6 protein coding open reading frame; expressed in transfected cells; host or cells: HT1080 (ATCC CCL-121), stably transduced with lentivirus pLV-UBC-N-HiBiT-BCL6-PGK-puro
In short: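 HT1080 cells stably expressing N-terminal HiBiT-BCL6 were treated with compound dilution series for 5 h at 37° C. in RPMI 1640 with 10% FBS. HiBiT lytic luminescence read after 15 min; degradation normalized to DMSO, with curves fitted by four-parameter logistic model.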

Row | Structure (SMILES) | Ymin (5 hr)
1 | CNC(=O)COc1cc2cc(Nc3nc(NCc4ccc(CNc5ccc6c(C7CCC(=O)NC7=O)nn(C)c6c5)cc4)ncc3Cl)ccc2n(C)c1=O (stereo not shown) [Compound 315, 2-((6-((5-chloro-2-((4-(((3-(2,6-dioxopiperidin-3-yl)-1-methyl-1H-indazol-6-yl)amino)methyl)benzyl)amino)pyrimidin-4-yl)amino)-1-methyl-2-oxo-1,2-dihydroquinolin-3-yl)oxy)-N-methylacetamide] | ++ (50% < Ymin ≤ 70%)
2 | CNC(=O)COc1cc2cc(Nc3nc(N4CCO[C@H](COc5ccc6c(C7CCC(=O)NC7=O)nn(C)c6c5)C4)ncc3Cl)ccc2n(C)c1=O (stereo partly drawn) [Compound 317a, 2-((6-((5-chloro-2-((2S)-2-(((3-(2,6-dioxopiperidin-3-yl)-1-methyl-1H-indazol-6-yl)oxy)methyl)morpholino)pyrimidin-4-yl)amino)-1-methyl-2-oxo-1,2-dihydroquinolin-3-yl)oxy)-N-methylacetamide] | +++ (25% < Ymin ≤ 50%)
3 | CNC(=O)COc1cc2cc(Nc3nc(NCc4ccc(CNc5cccc6c(C7CCC(=O)NC7=O)nn(C)c56)cc4)ncc3Cl)ccc2n(C)c1=O (stereo not shown) [Compound 318, 2-((6-((5-chloro-2-((4-(((3-(2,6-dioxopiperidin-3-yl)-1-methyl-1H-indazol-7-yl)amino)methyl)benzyl)amino)pyrimidin-4-yl)amino)-1-methyl-2-oxo-1,2-dihydroquinolin-3-yl)oxy)-N-methylacetamide] | ++ (50% < Ymin ≤ 70%)
4 | CNC(=O)COc1cc2cc(Nc3nc(N4CCC(CCCCOc5ccc6c(C7CCC(=O)NC7=O)nn(C)c6c5)CC4)ncc3Cl)ccc2n(C)c1=O (stereo not shown) [Compound 319, 2-((6-((5-chloro-2-(4-(4-((3-(2,6-dioxopiperidin-3-yl)-1-methyl-1H-indazol-6-yl)oxy)butyl)piperidin-1-yl)pyrimidin-4-yl)amino)-1-methyl-2-oxo-1,2-dihydroquinolin-3-yl)oxy)-N-methylacetamide] | ++ (50% < Ymin ≤ 70%)
5 | CNC(=O)COc1cc2cc(Nc3nc(N4CCN(CC5CCN(C(=O)c6ccc7c(C8CCC(=O)NC8=O)nn(C)c7c6)CC5)CC4)ncc3Cl)ccc2n(C)c1=O (stereo not shown) [Compound 321, 2-((6-((5-chloro-2-(4-((1-(3-(2,6-dioxopiperidin-3-yl)-1-methyl-1H-indazole-6-carbonyl)piperidin-4-yl)methyl)piperazin-1-yl)pyrimidin-4-yl)amino)-1-methyl-2-oxo-1,2-dihydroquinolin-3-yl)oxy)-N-methylacetamide] | +++ (25% < Ymin ≤ 50%)
6 | CNC(=O)COc1cc2cc(Nc3nc(N4CCC(CN5CCN(C(=O)c6ccc7c(C8CCC(=O)NC8=O)nn(C)c7c6)CC5)CC4)ncc3Cl)ccc2n(C)c1=O (stereo not shown) [Compound 322, 2-((6-((5-chloro-2-(4-((4-(3-(2,6-dioxopiperidin-3-yl)-1-methyl-1H-indazole-6-carbonyl)piperazin-1-yl)methyl)piperidin-1-yl)pyrimidin-4-yl)amino)-1-methyl-2-oxo-1,2-dihydroquinolin-3-yl)oxy)-N-methylacetamide] | +++ (25% < Ymin ≤ 50%)
7 | CNC(=O)COc1cc2cc(Nc3nc(N4C5CCC4CN(CC4CCN(c6cccc7c(C8CCC(=O)NC8=O)nn(C)c67)CC4)C5)ncc3Cl)ccc2n(C)c1=O (stereo not shown) [Compound 325, 2-((6-((5-chloro-2-(3-((1-(3-(2,6-dioxopiperidin-3-yl)-1-methyl-1H-indazol-7-yl)piperidin-4-yl)methyl)-3,8-diazabicyclo[3.2.1]octan-8-yl)pyrimidin-4-yl)amino)-1-methyl-2-oxo-1,2-dihydroquinolin-3-yl)oxy)-N-methylacetamide] | +++ (25% < Ymin ≤ 50%)
8 | CNC(=O)COc1cc2cc(Nc3nc(N4CCC(C(=O)N5CCN(c6ccc7c(C8CCC(=O)NC8=O)nn(C)c7c6)CC5)CC4)ncc3Cl)ccc2n(C)c1=O (stereo not shown) [Compound 328, 2-((6-((5-chloro-2-(4-(4-(3-(2,6-dioxopiperidin-3-yl)-1-methyl-1H-indazol-6-yl)piperazine-1-carbonyl)piperidin-1-yl)pyrimidin-4-yl)amino)-1-methyl-2-oxo-1,2-dihydroquinolin-3-yl)oxy)-N-methylacetamide] | ++++ (Ymin ≤ 25%)
9 | CNC(=O)COc1cc2cc(Nc3nc(N4CCC(CC5CCN(c6ccc7c(C8CCC(=O)NC8=O)nn(C)c7c6)C5)CC4)ncc3Cl)ccc2n(C)c1=O (stereo not shown) [Compound 332, 2-((6-((5-chloro-2-(4-((1-(3-(2,6-dioxopiperidin-3-yl)-1-methyl-1H-indazol-6-yl)pyrrolidin-3-yl)methyl)piperidin-1-yl)pyrimidin-4-yl)amino)-1-methyl-2-oxo-1,2-dihydroquinolin-3-yl)oxy)-N-methylacetamide] | +++ (25% < Ymin ≤ 50%)

Other lines, results leading:

Row | Ymin (5 hr) | Structure (SMILES)
10 | ++++ (Ymin ≤ 25%) | CNC(=O)COc1cc2cc(Nc3nc(N4CCC(OC5CCN(c6cccc7c(C8CCC(=O)NC8=O)nn(C)c67)CC5)CC4)ncc3Cl)ccc2n(C)c1=O (stereo not shown) [Compound 316, 2-((6-((5-chloro-2-(4-((1-(3-(2,6-dioxopiperidin-3-yl)-1-methyl-1H-indazol-7-yl)piperidin-4-yl)oxy)piperidin-1-yl)pyrimidin-4-yl)amino)-1-methyl-2-oxo-1,2-dihydroquinolin-3-yl)oxy)-N-methylacetamide]
11 | +++ (25% < Ymin ≤ 50%) | CNC(=O)COc1cc2cc(Nc3nc(N4CCC(CC5CCN(c6cccc7c(C8CCC(=O)NC8=O)nn(C)c67)C5)CC4)ncc3Cl)ccc2n(C)c1=O (stereo not shown) [Compound 320, 2-((6-((5-chloro-2-(4-((1-(3-(2,6-dioxopiperidin-3-yl)-1-methyl-1H-indazol-7-yl)pyrrolidin-3-yl)methyl)piperidin-1-yl)pyrimidin-4-yl)amino)-1-methyl-2-oxo-1,2-dihydroquinolin-3-yl)oxy)-N-methylacetamide]
12 | +++ (25% < Ymin ≤ 50%) | CNC(=O)COc1cc2cc(Nc3nc(N4CCN(CC5CCN(C(=O)c6cccc7c(C8CCC(=O)NC8=O)nn(C)c67)CC5)CC4)ncc3Cl)ccc2n(C)c1=O (stereo not shown) [Compound 323, 2-((6-((5-chloro-2-(4-((1-(3-(2,6-dioxopiperidin-3-yl)-1-methyl-1H-indazole-7-carbonyl)piperidin-4-yl)methyl)piperazin-1-yl)pyrimidin-4-yl)amino)-1-methyl-2-oxo-1,2-dihydroquinolin-3-yl)oxy)-N-methylacetamide]
13 | +++ (25% < Ymin ≤ 50%) | CNC(=O)COc1cc2cc(Nc3nc(N4CCC(CN5CCN(C(=O)c6cccc7c(C8CCC(=O)NC8=O)nn(C)c67)CC5)CC4)ncc3Cl)ccc2n(C)c1=O (stereo not shown) [Compound 324, 2-((6-((5-chloro-2-(4-((4-(3-(2,6-dioxopiperidin-3-yl)-1-methyl-1H-indazole-7-carbonyl)piperazin-1-yl)methyl)piperidin-1-yl)pyrimidin-4-yl)amino)-1-methyl-2-oxo-1,2-dihydroquinolin-3-yl)oxy)-N-methylacetamide]
14 | +++ (25% < Ymin ≤ 50%) | CNC(=O)COc1cc2cc(Nc3nc(N4CCC5CN(c6cccc7c(C8CCC(=O)NC8=O)nn(C)c67)CC5C4)ncc3Cl)ccc2n(C)c1=O (stereo not shown) [Compound 326, 2-((6-((5-chloro-2-(2-(3-(2,6-dioxopiperidin-3-yl)-1-methyl-1H-indazol-7-yl)octahydro-5H-pyrrolo[3,4-c]pyridin-5-yl)pyrimidin-4-yl)amino)-1-methyl-2-oxo-1,2-dihydroquinolin-3-yl)oxy)-N-methylacetamide]
15 | ++++ (Ymin ≤ 25%) | CNC(=O)COc1cc2cc(Nc3nc(N4CCC(C(=O)N5CCN(c6cccc7c(C8CCC(=O)NC8=O)nn(C)c67)CC5)CC4)ncc3Cl)ccc2n(C)c1=O (stereo not shown) [Compound 327, 2-((6-((5-chloro-2-(4-(4-(3-(2,6-dioxopiperidin-3-yl)-1-methyl-1H-indazol-7-yl)piperazine-1-carbonyl)piperidin-1-yl)pyrimidin-4-yl)amino)-1-methyl-2-oxo-1,2-dihydroquinolin-3-yl)oxy)-N-methylacetamide]
16 | ++ (50% < Ymin ≤ 70%) | CNC(=O)COc1cc2cc(Nc3nc(N4CCCC5(CN(c6ccc7c(C8CCC(=O)NC8=O)nn(C)c7c6)C5)C4)ncc3Cl)ccc2n(C)c1=O (stereo not shown) [Compound 329, 2-((6-((5-chloro-2-(2-(3-(2,6-dioxopiperidin-3-yl)-1-methyl-1H-indazol-6-yl)-2,6-diazaspiro[3.5]nonan-6-yl)pyrimidin-4-yl)amino)-1-methyl-2-oxo-1,2-dihydroquinolin-3-yl)oxy)-N-methylacetamide]
17 | ++ (50% < Ymin ≤ 70%) | CNC(=O)COc1cc2cc(Nc3nc(N4CCCC5(CCCN(c6cccc7c(C8CCC(=O)NC8=O)nn(C)c67)C5)C4)ncc3Cl)ccc2n(C)c1=O (stereo not shown) [Compound 330, 2-((6-((5-chloro-2-(8-(3-(2,6-dioxopiperidin-3-yl)-1-methyl-1H-indazol-7-yl)-2,8-diazaspiro[5.5]undecan-2-yl)pyrimidin-4-yl)amino)-1-methyl-2-oxo-1,2-dihydroquinolin-3-yl)oxy)-N-methylacetamide]
18 | +++ (25% < Ymin ≤ 50%) | CNC(=O)COc1cc2cc(Nc3nc(N4CCCC5(CCN(c6ccc7c(C8CCC(=O)NC8=O)nn(C)c7c6)C5)C4)ncc3Cl)ccc2n(C)c1=O (stereo not shown) [Compound 331, 2-((6-((5-chloro-2-(2-(3-(2,6-dioxopiperidin-3-yl)-1-methyl-1H-indazol-6-yl)-2,7-diazaspiro[4.5]decan-7-yl)pyrimidin-4-yl)amino)-1-methyl-2-oxo-1,2-dihydroquinolin-3-yl)oxy)-N-methylacetamide]
19 | ++++ (Ymin ≤ 25%) | CNC(=O)COc1cc2cc(Nc3nc(N4CCC(CN5CCN(c6cccc7c(C8CCC(=O)NC8=O)nn(C)c67)CC5)CC4)ncc3Cl)ccc2n(C)c1=O (stereo not shown) [Compound 333, 2-((6-((5-chloro-2-(4-((4-(3-(2,6-dioxopiperidin-3-yl)-1-methyl-1H-indazol-7-yl)piperazin-1-yl)methyl)piperidin-1-yl)pyrimidin-4-yl)amino)-1-methyl-2-oxo-1,2-dihydroquinolin-3-yl)oxy)-N-methylacetamide]
